Assay results published in patent US9573913B2, “Cathepsin cysteine protease inhibitors” (Merck Sharp & Dohme Corp., priority 2013, dated 2017).

Columns and labels:
[1] = target: human cathepsin K (UniProt P43236); experiment: Cathepsin K Assay (hrbCat K); format: biochemical; details: Z-Leu-Arg-AMC substrate, pH 5.5, 15 min preincubation; read-out: hrbCat K (IP (nM))
Procedure, shortened: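 Human cathepsin K (0.4 nM) was preincubated 15 min at room temperature with compound in 50 mM MES pH 5.5, 2.5 mM EDTA, 2.5 mM DTT and 10% DMSO. Inhibition was fitted to a dose-response model.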

[2] = target: T1, human cathepsin F (Homo sapiens, UniProt Q9UBX1); experiment: Cathepsin F assay (hCat F); format: biochemical; details: Z-Phe-Arg-AMC substrate, pH 5.5, 15 min preincubation; read-out: hCat F (IP (nM))
T1 sequence (Q9UBX1 271-484): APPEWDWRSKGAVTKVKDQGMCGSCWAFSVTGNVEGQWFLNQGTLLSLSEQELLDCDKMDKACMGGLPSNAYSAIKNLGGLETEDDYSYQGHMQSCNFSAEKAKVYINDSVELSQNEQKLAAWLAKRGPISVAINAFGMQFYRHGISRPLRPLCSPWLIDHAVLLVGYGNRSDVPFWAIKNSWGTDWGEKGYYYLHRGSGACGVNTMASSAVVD
Procedure, shortened: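 Enzyme (10 nM) was preincubated 15 min at room temperature with compounds (1/3 DMSO dilution series, 500–0.025 μM) in 50 mM MES pH 5.5, 2.5 mM EDTA, 2.5 mM DTT, 10% DMSO. Z-Phe-Arg-AMC (8 μM) was added and AMC fluorescence (Ex 360/Em 460 nm) followed for 20 min. % inhibition was fitted to dose-response curves.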

SMILES	IC50 [1] [nM]	IC50 [2] [nM]
N#CC(NC(=O)[C@@H]1CCCC[C@H]1c1nc(-c2ccc(F)cn2)sc1-c1ccc(N2CCS(=O)(=O)CC2)cc1)C(F)(F)F (mixture of isomers) [Example 215, (1R,2R)-N-((S and R)-1-cyano-2,2,2-trifluoroethyl)-2-(5-(4-(1,1-dioxidothiomorpho-lino)phenyl)-2-(5-fluoropyridin-2-yl)thiazol-4-yl)cyclohexane-carboxamide]	2.4	60
N#CC1(NC(=O)[C@@H]2C[C@@H](F)CC[C@H]2c2nc(-c3ccc(F)cn3)sc2-c2ccc(N3CCS(=O)(=O)CC3)cc2)CC1 [Example 69, (1R,2R,5S)-N-(1-cyanocyclopropyl)-2-(5-(4-(1,1-dioxidothiomorpho-lino)phenyl)-2-(5-fluoropyridin-2-yl)thiazol-4-yl)-5-fluorocyclohexane-carboxamide]	1.2	2600
N#CC1(NC(=O)[C@@H]2CCCC[C@H]2c2nc(-c3ccc(C(F)(F)F)nc3)sc2-c2ccc(N3CCS(=O)(=O)CC3)cc2)CC1 [Example 38, (1R,2R)-N-(1-cyanocyclopropyl)-2-(5-(4-(1,1-dioxidothiomorpho-lino)phenyl)-2-(6-(trifluoromethyl)pyridin-3-yl)thiazol-4-yl)cyclohexane-carboxamide]	1.8	2060
N#CC1(NC(=O)[C@@H]2CCCC[C@H]2c2nc(-c3ccc(C4CCOCC4)cc3)sc2-c2ccc(N3CCS(=O)(=O)CC3)cc2)CC1 [Example 121, (1S,2R)-N-(1-cyanocyclopropyl)-2-(5-(4-(1,1-dioxidothiomorpho-lino)phenyl)-2-(4-(tetrahydro-2H-pyran-4-yl)phenyl)thiazol-4-yl)cyclohexane-carboxamide]	1.5	1110
N#CC1(NC(=O)[C@@H]2CCCC[C@H]2c2nc(C3CC(F)(F)C3)sc2-c2ccc(N3CCS(=O)(=O)CC3)cc2)CC1 [Compound 1, (1R,2R)-N-(1-cyanocyclopropyl)-2-(2-(3,3-difluorocyclobutyl)-5-(4-(1,1-dioxidothiomorpholino)phenyl)thiazol-4-yl)cyclohexanecarboxamide]	5.8	1000
COc1cnc(-c2nc([C@@H]3CCCC[C@H]3C(=O)NC3(C#N)CC3)c(-c3ccc(N4CCS(=O)(=O)CC4)cc3)s2)c(OC)c1 [Example 59, (1R,2R)-N-(1-cyanocyclopropyl)-2-(2-(3,5-dimethoxypyridin-2-yl)-5-(4-(1,1-dioxidothiomorpho-lino)phenyl)thiazol-4-yl)cyclohexane-carboxamide]	45.1	≥ 10000
N#CC1(NC(=O)[C@@H]2CCCC[C@H]2c2nc(CC(F)(F)F)sc2-c2ccc(N3CCS(=O)(=O)CC3)cc2)CC1 [Example 22, (1R,2R)-N-(1-cyanocyclopropyl)-2-(5-(4-(1,1-dioxidothiomorpho-lino)phenyl)-2-(2,2,2-trifluoroethyl)thia-zol-4-yl)cyclohexane-carboxamide]	6.6	8520
CC(C)[C@@H](C#N)NC(=O)[C@@H]1C[C@@H](F)CC[C@H]1c1nc(C(C)(C)C)oc1-c1ccc(N2CCS(=N)(=O)CC2)cc1 [Example 172, (1R,2R,5S)-2-(2-(tert-butyl)-5-(4-(1-imino-1-oxidothiomorpholino)phenyl)oxazol-4-yl)-N-((S)-1-cyano-2-methylpropyl)-5-fluorocyclohexane-carboxamide]	34.4	≥ 10000
N#CC1(NC(=O)[C@@H]2CCCC[C@H]2c2nc(N3CCC4(CC3)CC4)sc2-c2ccc(N3CCS(=O)(=O)CC3)cc2)CC1 [Example 102, (1R,2R)-N-(1-cyanocyclopropyl)-2-(5-(4-(1,1-dioxidothiomorpho-lino)phenyl)-2-(6-azaspiro[2.5]octan-6-yl)thiazol-4-yl)cyclohexane-carboxamide]	2.4	1000
COc1cnc(-c2nc([C@@H]3CCCC[C@H]3C(=O)NC3(C#N)CC3)c(-c3ccc(N4CCS(=O)(=O)CC4)cc3)s2)c(F)c1 [Example 60, (1R,2R)-N-(1-cyanocyclopropyl)-2-(5-(4-(1,1-dioxidothiomorpho-lino)phenyl)-2-(3-fluoro-5-methoxypyridin-2-yl)thiazol-4-yl)cyclohexane-carboxamide]	5.1	7910
CS(=O)(=O)C1CN(c2ccc(-c3sc(-c4cncc(F)c4)nc3[C@@H]3CCCC[C@H]3C(=O)NC3(C#N)CC3)cc2)C1 [Example 75, (1R,2R)-N-(1-cyanocyclopropyl)-2-(2-(5-fluoropyridin-3-yl)-5-(4-(3-(methylsulfonyl)azetidin-1-yl)phenyl)thiazol-4-yl)cyclohexane-carboxamide]	1.5	867
CN=S1(=O)CCN(c2ccc(-c3oc(C(C)(C)C)nc3[C@@H]3CC[C@H](F)C[C@H]3C(=O)NC3(C#N)CC3)cc2)CC1 [Example 14, (1R,2R,5S)-2-(2-(tert-Butyl)-5-(4-(1-(methylimino)-1-oxidothiomorpholino)phenyl)oxazol-4-yl)-N-(1-cyanocyclopropyl)-5-fluorocyclohexanecarboxamide]	5.2	≥ 10000
C[C@@H](C#N)NC(=O)[C@@H]1C[C@@H](F)CC[C@H]1c1nc(C2CC(F)C2)sc1-c1ccc(N2CCS(=O)(=O)CC2)cc1 (single isomer, unassigned) [Example 236, (1R,2R,5S)-N-((S)-1-cyanoethyl)-2-(5-(4-(1,1-dioxidothiomorpho-lino)phenyl)-2-((1R,3R or 1S,3S)-(3-fluorocyclobutyl)thiazol-4-yl)-5-fluorocyclohexane-carboxamide]	3.7	4500
CCC(C#N)NC(=O)[C@@H]1CCCC[C@H]1c1nc(-c2ccc(F)cn2)sc1-c1ccc(N2CCS(=O)(=O)CC2)cc1 (single isomer, unassigned) [Example 188, (1R,2R)-N-((S or R)-1-cyanopropyl)-2-(5-(4-(1,1-dioxidothiomorpho-lino)phenyl)-2-(5-fluoropyridin-2-yl)thiazol-4-yl)cyclohexane-carboxamide]	15.3	6710
Cc1ccc(-c2nc([C@@H]3CC[C@H](F)C[C@H]3C(=O)NC3(C#N)CC3)c(-c3ccc(N4CCC(C)(O)CC4)cc3)s2)nn1 [Example 222, (1R,2R,5S)-N-(1-cyanocyclopropyl)-5-fluoro-2-(5-(4-(4-hydroxy-4-methylpiperidin-1-yl)phenyl)-2-(6-methylpyridazin-3-yl)thiazol-4-yl)cyclohexane-carboxamide]	6.2	2050
CC(C)C(C#N)NC(=O)[C@@H]1CCCC[C@H]1c1nc(-c2ccc(F)cn2)sc1-c1ccc(N2CCS(=O)(=O)CC2)cc1 (single isomer, unassigned) [Example 187, (1R,2R)-N-((S or R)-1-cyano-2-methylpropyl)-2-(5-(4-(1,1-dioxidothiomorpho-lino)phenyl)-2-(5-fluoropyridin-2-yl)thiazol-4-yl)cyclohexane-carboxamide]	3820	≥ 10000
N#CC1(NC(=O)[C@@H]2CCCC[C@H]2c2nc(NCC(F)(F)F)sc2-c2ccc(N3CCS(=O)(=O)CC3)cc2)CC1 [Example 156, (1R,2R)-N-(1-cyanocyclopropyl)-2-(5-(4-(1,1-dioxidothiomorpho-lino)phenyl)-2-((2,2,2-trifluoroethyl)amino)thiazol-4-yl)cyclohexane-carboxamide]	8.8	≥ 10000
C[C@@H](C#N)NC(=O)[C@@H]1C[C@@H](F)CC[C@H]1c1nc(C(C)(C)C)sc1-c1ccc(N2CCS(=O)(=O)CC2)cc1 [Example 207, (1R,2R,5S)-2-(2-(tert-butyl)-5-(4-(1,1-dioxidothiomorpho-lino)phenyl)thiazol-4-yl)-N-((S)-1-cyanoethyl)-5-fluorocyclohexane-carboxamide]	1.6	2570
CC(C)(C)c1nc([C@@H]2CCCC[C@H]2C(=O)NC2(C#N)CC2)c(-c2ccc(N3CCS(=O)(=O)CC3)cc2)s1 [Example 20, (1R,2R)-2-(2-(tert-butyl)-5-(4-(1,1-dioxidothiomorpho-lino)phenyl)thiazol-4-yl)-N-(1-cyanocyclopropyl) cyclohexanecarbox-amide]	2.7	8630
N#CC1(NC(=O)[C@@H]2CC3CC3C[C@H]2c2nc(-c3cncc(F)c3)sc2-c2ccc(N3CCS(=O)(=O)CC3)cc2)CC1 (single isomer, unassigned) [Compound 3, (1S or 1R,3R,4R,6R or 6S)-N-(1-Cyanocyclopropyl)-4-(5-(4-(1,1-dioxidothiomorpholino)phenyl)-2-(5-fluoropyridin-3-yl)thiazol-4-yl)bicyclo[4.1.0]heptane-3-carboxamide]	0.7	225
N#CC1(NC(=O)[C@@H]2CCCC[C@H]2c2nc(C3CCC(F)(F)C3)sc2-c2ccc(N3CCS(=O)(=O)CC3)cc2)CC1 (mixture of isomers) [Example 154, (1R,2R)-N-(1-cyanocyclopropyl)-2-(2-((R and S)-3,3-difluorocyclopentyl)-5-(4-(1,1-dioxidothiomorpho-lino)phenyl)thiazol-4-yl)cyclohexane-carboxamide]	4.5	1000
